US11344603B2, “Cytokine modulation” (AUCKLAND UNISERVICES LIMITED, priority 2017, dated 2022)
“Also recorded” adds a separate entry of the source.

Assays:
[1] = target: Cx43 carboxy-terminal domain (Rattus norvegicus, UniProt P08050); conditions: low pH conditions; Verma et al. 2009, 2010; cited from earlier work
[2] = system: NLRP3 inflammasome complex; assay: Immunohistochemical labelling and quantification of NLRP3 inflammasome complexes; type: cell-based, human; conditions: 24 h
Protocol: At passage 6-12, cells were plated at 2.5×10^5 cells/mL in 8-well chamber slides for immunohistochemical studies or 24-well plates for ATP release assay and cytometric bead array analysis. Once confluent, the culture medium was changed to treatments in serum-free DMEM-F12 containing 1×AA. Some cultures were challenged with 15 mM glucose (High glucose (high glucose) group), a combination of pro-inflammatory cytokines 10 ng/mL TNF-α (Peprotech, USA) and 10 ng/mL IL-1β (Peprotech, USA) (Cytokines group), or a combination of high glucose, 10 ng/mL TNF-α and 10 ng/mL IL-1β (high glucose+Cytokines group). The untreated group received a medium change with no additional treatments (Basal group). All assessments were carried out 24 h post-treatment. After 24 h of incubation in treatment media, cells were fixed with 4% paraformaldehyde for 10 min and permeabilised with 0.1% Triton X-100 in phosphate buffer saline (PBS) for 10 min. Cells were then incubated with mouse anti-NLRP3 (1:100; Abcam, USA) at 4° C. overnight followed by washing in PBS three times for 15 min. Goat anti-mouse Cy3 (1:500; Jackson Immuno Research, USA) secondary antibodies were applied to the slides and incubated at room temperature for 3 h. […] For NLRP3 immunohistochemical analysis, four images were analysed per well and the entire experiment was repeated three times. […] The number of NLPR3 spots were counted for each image.

ARPE-19 cells [3] = assay: Cytokine and chemokine measurement by Cytometric Bead Array in ARPE-19 incubation medium; type: cell-based, human
Protocol: (§1) Human adult retinal pigmented epithelial cells (ARPE-19; American Type Culture Collection, Manassas, Va.) were cultured in Dulbecco's Modified Eagle Medium Nutrient Mixture F-12 medium (DMEM-F12; Thermofisher Scientific Inc., USA) supplemented with 10% foetal bovine serum (FBS; Invitrogen) and a 1× antibiotics and antimycotics mixture (AA, 100× stock) at 37° C. in a humidified 5% C02 incubator. Cells were grown in T75 flasks and the medium was changed twice per week until confluent and ready for experimentation.
(§2) At passage 6-12, cells were plated at 2.5×10^5 cells/mL in 8-well chamber slides for immunohistochemical studies or 24-well plates for ATP release assay and cytometric bead array analysis. Once confluent, the culture medium was changed to treatments in serum-free DMEM-F12 containing 1×AA. Some cultures were challenged with 15 mM glucose (High glucose (high glucose) group), a combination of pro-inflammatory cytokines 10 ng/mL TNF-α (Peprotech, USA) and 10 ng/mL IL-1β (Peprotech, USA) (Cytokines group), or a combination of high glucose, 10 ng/mL TNF-α and 10 ng/mL IL-1β (high glucose+Cytokines group). The untreated group received a medium change with no additional treatments (Basal group). All assessments were carried out 24 h post-treatment.
(§3) Peptide5 (H-Val-Asp-Cys-Phe-Leu-Ser-Arg-Pro-Thr-Glu-Lys-Thr-OH (SEQ ID NO: 1); China Peptides, China) was administered to cells challenged with high glucose and pro-inflammatory cytokines. Concentration-dependent effects were studied at 5, 10, 25 and 50 μM of […] after 24 h. […] O'Carroll, S J, et al. Connexin43 mimetic peptides reduce swelling, astrogliosis, and neuronal cell death after spinal cord injury. Cell communication & adhesion, 15:27-42 (2008).
Soluble cytokines and chemokines in the ARPE-19 incubation medium were measured simultaneously using multiplexed bead-based immunoassays, Cytometric Bead Array (CBA, BD Biosciences, USA). Three tests of 50 μL volume was taken from duplicate cultures in 24-well plates after 24 h and transferred into a 96-well plate to be used for the CBA assay. The analysis included six tests per group. The assay was conducted according to the manufacturer's instructions. Briefly, a ten-point standard curve ranging from 0 to 5000 pg/mL for each cytokine was prepared using the cytokine standard provided in each kit. The cytokines measured were human soluble CD54 (sICAM-1, cat #560269, BD Biosciences, USA), IL-6 (cat #558276), IL-8 (cat #558227), and MCP-1 (cat #558287). Samples and cytokine standards were incubated in the capture bead mixture for 1 h and Phycoerythrin (PE)-conjugated antibodies against each cytokine were added to the sample-bead mixture for 2 h incubation at room temperature. All buffers used were from the CBA human soluble protein master buffer kit (cat #558265, BD Biosciences, USA). Beads were washed and analysed using an Accuri C6 flow cytometer (BD Biosciences, USA). Mean fluorescence intensity for each bead cluster was converted into cytokine concentrations based on the ten-point standard curve using FCAP Array™ software (BD version 3.1) as described previously (O'Carroll et al., 2015).

ARPE-19 cells [4] = assay: VEGF secretion by ARPE-19 cells; type: cell-based, human; conditions: for VEGF release: high glucose + cytokines + Peptagon, versus basal
Protocol: as §1, §2, §3

ARPE-19 cells [5] = assay: ATP release assay (ATPlite luminescence); type: cell-based, human; conditions: high glucose + cytokines, 24 h, compared to high glucose and cytokines
Protocol: as §1
At passage 6-12, cells were plated at 2.5×10^5 cells/mL in 8-well chamber slides for immunohistochemical studies or 24-well plates for ATP release assay and cytometric bead array analysis. Once confluent, the culture medium was changed to treatments in serum-free DMEM-F12 containing 1×AA. […]
After 24 h of incubation in treatment media, ATP release was measured in triplicates using 50 μL of culture medium taken from duplicate wells of 24-well plates. […] ATP released into the culture medium was measured using the ATPlite Luminescence ATP Detection Assay System as per manufacturer instructions (PerkinElmer, USA). ATP release (%) in Peptide5 treated cultures (treated group) were calculated relative to cells treated with high glucose and cytokines (injury group) using the formula: (OD490 of treated group−OD490 of injury group)/(OD490 of injury group)×100%.

connexin 43 hemichannels = conditions: cited from earlier work
[6] = 10 nM exogenous ATP alone, mean ± SD
[7] = high glucose + cytokines + Peptagon 25 μM + ATP 10 nM, 24 h
[8] = high glucose + cytokines (10 ng/mL TNF-α, 10 ng/mL IL-1β), Peptagon 5, 10, 25, 50 μM, 24 h
[9] = high glucose + cytokines, 5, 10, 25, 50 μM, 24 h
[10] = high glucose + cytokines, Peptagon 25 μM, 24 h

Chain of Cx43 carboxy-terminal domain (P08050 whole entry, the tested form may be a part): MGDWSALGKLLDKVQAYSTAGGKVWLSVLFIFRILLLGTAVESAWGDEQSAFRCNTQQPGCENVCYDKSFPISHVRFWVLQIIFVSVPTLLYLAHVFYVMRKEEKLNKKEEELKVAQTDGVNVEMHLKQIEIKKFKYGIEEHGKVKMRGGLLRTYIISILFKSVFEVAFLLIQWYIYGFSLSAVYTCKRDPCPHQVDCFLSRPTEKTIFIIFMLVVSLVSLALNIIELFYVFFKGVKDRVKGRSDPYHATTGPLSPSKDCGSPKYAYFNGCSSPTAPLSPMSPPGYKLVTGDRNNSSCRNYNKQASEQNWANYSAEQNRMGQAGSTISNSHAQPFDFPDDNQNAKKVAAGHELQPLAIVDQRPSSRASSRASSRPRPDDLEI

Compound: RRNYRRNY [linear peptide RRNYRRNY targeting the Cx43 carboxy-terminal domain]
- Cx43-based gap junction closure [1]: prevent Cx43-based gap junction closure under low pH conditions

Compound: Nc1ncnc2c1ncn2[C@@H]1O[C@H](COP(=O)(O)OP(=O)(O)OP(=O)(O)O)[C@@H](O)[C@H]1O [ATP]
- effect of exogenous ATP on Peptagon block of NLRP3 inflammasome assembly ([2]; high glucose + cytokines + Peptagon + 10 nM ATP): overrode the hemichannel blocker treatment
- change in IL-6 secretion compared to basal conditions (ARPE-19 cells [3]; 10 nM exogenous ATP alone): no change
- change in IL-8 secretion compared to basal conditions (ARPE-19 cells [3]; 10 nM exogenous ATP alone): no change
- change in sICAM-1 secretion compared to basal conditions (ARPE-19 cells [3]; 10 nM exogenous ATP alone): no change
- IL-6 secretion in response to extracellular ATP (ARPE-19 cells [3]; [6]): 8.22 ± 2.25 pg/mL
- IL-8 secretion in response to extracellular ATP (ARPE-19 cells [3]; [6]): 67.70 ± 11.44 pg/mL
- MCP-1 secretion in response to extracellular ATP (ARPE-19 cells [3]; [6]): 230.72 ± 37.08 pg/mL
- sICAM-1 secretion in response to extracellular ATP (ARPE-19 cells [3]; [6]): 0 pg/mL
- change in MCP-1 release compared to basal conditions (ARPE-19 cells [3]; 10 nM exogenous ATP alone, p≤0.0001): decrease
- effect of exogenous ATP on Peptagon-mediated protection against IL-6 release (ARPE-19 cells [3]; [7]): back towards injury levels; also recorded: reversed
- effect of exogenous ATP on Peptagon-mediated protection against IL-8 release (ARPE-19 cells [3]; [7]): back towards injury levels; also recorded: reversed
- effect of exogenous ATP on Peptagon-mediated protection against MCP-1 release (ARPE-19 cells [3]; [7]): back towards injury levels; also recorded: reversed
- effect of exogenous ATP on Peptagon-mediated protection against sICAM-1 release (ARPE-19 cells [3]; [7]): did not reach statistical significance
- change in VEGF secretion compared to basal conditions (ARPE-19 cells [4]; 10 nM exogenous ATP alone): no change
- VEGF secretion in response to extracellular ATP (ARPE-19 cells [4]; [6]): 56.62 ± 8.94 pg/mL
- effect of exogenous ATP on Peptagon hemichannel block effect on VEGF release (ARPE-19 cells [4]; high glucose + cytokines + Peptagon + exogenous ATP, 24 h): completely overrode; also recorded: negated hemichannel blocker-mediated protection against VEGF release

Compound: H-Val-Asp-Cys-Phe-Leu-Ser-Arg-Pro-Thr-Glu-Lys-Thr-OH (H-VDCFLSRPTEKT-OH) [Peptagon]
- NLRP3 inflammasome assembly ([2]; high glucose + inflammatory cytokines): blocked inflammasome assembly
- ATP release (ARPE-19 cells [5]): significantly reduced
- ATP release (ARPE-19 cells [5]; listed as Peptide5): prevented
- IL-6 secretion (ARPE-19 cells [3]; [8]): significantly reduced
- IL-8 secretion (ARPE-19 cells [3]; [8]): significantly reduced
- MCP-1 secretion (ARPE-19 cells [3]; [8]): significantly reduced
- sICAM-1 secretion (ARPE-19 cells [3]; [8]): significantly reduced; also recorded: decrease
- concentration dependence of decrease in IL-6, IL-8 and MCP-1 secretion (ARPE-19 cells [3]; [9]): slight trend towards a concentration-dependent decrease; also recorded: concentration-dependent manner
- concentration dependence of decrease in sICAM-1 secretion (ARPE-19 cells [3]; [9]): all peptide concentrations had the same effect
- IL-6 secretion (ARPE-19 cells [3]; [10]): reduced secretion
- IL-8 secretion (ARPE-19 cells [3]; [10]): reduced secretion
- MCP-1 secretion (ARPE-19 cells [3]; [10]): reduced secretion
- sICAM-1 secretion (ARPE-19 cells [3]; [10]): reduced secretion
- connexin 43 hemichannel block versus gap junction coupling (connexin 43 hemichannels; 5, 10, 25 and 50 μM, O'Carroll et al. 2008): block connexin 43 hemichannels with minimal effect on gap junction cell-cell coupling
- dose dependent action on hemichannels and gap junctions (connexin 43 hemichannels; O'Carroll et al., 2008): lower doses blocking gap junction hemichannel opening and higher doses uncoupling gap junctions between cells
- VEGF release (ARPE-19 cells [4]; 24 h): restored VEGF secretion back to basal levels
- VEGF release (ARPE-19 cells [4]; 24 h, listed as Peptide5): completely arrested
